Laboratory results taken from patent publication US9034826B2, “Use of epidermal growth factor for the morphofunctional restoration of peripheral nerves in diabetic neuropathy” (Centro de Ingenieria Genetica y Biotecnologia, priority 2006, dated 2015).

What was measured:
Format in all cases: in vivo, Wistar rats
diabetic rats [1] = test: Nociceptive threshold (NCT) pain test, prevention of diabetic neuropathy (Example 1); conditions: 75 μg EGF/ml
Experimental: (§1) Male Wistar, with 200-250 grams of body weight, received a subcutaneous injection of streptozotocin, at 75 mg/kg in sodium citrate buffer. Water was then replaced by a 10% sucrose solution during the next 24 h, to prevent deaths caused by hypoglycemia. Glucose levels in blood were monitored every morning during the next 72 hours after the injection. Only animals with sustained glucose values above 15 mmol/L were used. Rats were housing at 4 per cage and fed in the conventional way. A concurrent group of other 80 rats received citrate buffer without streptozotocin and was handled in a similar fashion to the diabetic group.
(§2) All treatments were conducted during 8 weeks, starting one week after streptozotocin injection. The composition used contained 75 μg of human recombinant EGF/ml. Several types of observations were conducted in the animals under study:
The pain test, by application of an increasing pressure in the tail, was carried out at days 28 and 56 after initiation of the treatment, using 10 animals per each one of the experimental groups. NCT, expressed in grams, was determined by using an Ugo Basile type analgesimeter to apply a gradually increasing pressure to the tail of the animals until they developed a withdrawal reflex. In human diabetic neuropathy the nociceptive threshold is reduced.

diabetic rats [2] = test: Motor conduction velocity, sciatic-tibial route, prevention study (Example 1); conditions: 75 μg EGF/ml, day 60
Experimental: as §1, with “group. The average value for glycemia during the 72 hours in this group was 5.87 mmol/L.” for “group.”
as §2
Fifteen animals were used in each experimental group. In diabetic neuropathy conduction velocity is generally diminished.
Distal supra-maximal stimulation in the sciatic-tibial route using bipolar electrodes is was used to study motor conduction. Determination of the conduction velocity in the sensory routes was carried out by applying a stimulus at a proximal point in the tail and measure it 3 cm away.

right sciatic nerve = test: Laser Doppler Perfusion Imaging of blood perfusion of a peripheral nerve, reversion study (Example 2); conditions: established diabetic neuropathy, 100 μg EGF in 1 ml i.p. 3 days a week for one month
Excerpt: The right sciatic nerve of rats was used as a model. Ten animals were included for each one of the experimental groups. A similar number of non diabetic rats were used to calculate the reference values. A Laser Doppler Perfusion Imaging (LDPI) system was used. Data of perfusion in peripheral tissues to the nerve were programmed as zero values. Control animals received saline during two months before the measurement. All determinations were done under the same conditions of anesthesia and environmental conditions. They are reflected in Table 5. The aim of this study was to evaluate the neurorestoration effect of the pharmaceutical composition. Male Wistar rats between 200-250 grams of body is weight received a subcutaneous injection of streptozotocin at 75 mg/kg in sodium citrate buffer, and were allowed to evolve until 120 days after disease induction. All rats used in this experiment had shown sustained glucose levels above 15 mmol/L. Animals were handled and fed as previously described. A concurrent control group was set, where animals received saline instead of streptozotocin. […] After this period an electrophysiological characterization of all rats were done and animals were split in two random treatment groups: Group II. Animals received the pharmaceutical composition with 100 μg of EGF in 1 ml, 3 days a week, by intraperitoneal route. […]

sciatic nerve = test: Histomorphometric study on fragments of the sciatic nerve, reversion study (Example 2); conditions: established diabetic neuropathy, 100 μg EGF in 1 ml i.p. 3 days a week, evaluation after 30 days
Experimental: (§3) The aim of this study was to evaluate the neurorestoration effect of the pharmaceutical composition. Male Wistar rats between 200-250 grams of body is weight received a subcutaneous injection of streptozotocin at 75 mg/kg in sodium citrate buffer, and were allowed to evolve until 120 days after disease induction. All rats used in this experiment had shown sustained glucose levels above 15 mmol/L. Animals were handled and fed as previously described. A concurrent control group was set, where animals received saline instead of streptozotocin. […] After this period an electrophysiological characterization of all rats were done and animals were split in two random treatment groups:
(§4) Group II. Animals received the pharmaceutical composition with 100 μg of EGF in 1 ml, 3 days a week, by intraperitoneal route.
(§5) One month after conclusion of the treatment with either EGF containing composition or saline, and […] after disease induction, animals were sacrificed by an overdose of anesthesia and perfused with saline buffer pH 7.4. A total of ten animals per experimental group were included for histomorphometric studies, and an equivalent number of rats were used for biochemical determinations. In both systems the sciatic nerves from both limbs were dissected. The procedures were similar to those described for the neuropathic damage prevention assay. Samples taken for histological and o histomorphometric studies were stained with hematoxilin/eosin and toluidine blue. At least five fragments of the same nerve were quantitatively studied using MADIP program. The fragments were included in OCT blocks, post-fixed with glutaraldehyde, and sliced horizontal and transversally. The histological indicators assessed have been described above as well as the procedures used for the processing and evaluation: • Total number of blood vessels (in epineural/perineural) in 10 microscopic fields using 10× as constant magnification in longitudinal cuts of the nerve. • Percentage of demyelinated fibers. Evaluated by averaging the values per microscopic field (×20, at least five fields). • Percentage of myelin or non-myelin fibers with lesions (dilated or distorted) per microscopic field (×20, at least five fields). • Percentage of endoneurial collagenization (moderated: 25 to 50%; severe: more than 50% of the endoneurial area in transversal slices, and at least three different sections.

[3] = test system: Redox state in fragments of sciatic nerve; test: Redox profile in fragments of sciatic nerve, reversion study (Example 2); conditions: established diabetic neuropathy, 100 μg EGF in 1 ml i.p. 3 days a week for one month
Experimental: as §3, §4, §5
Ten animals from each group were used for the biochemical determinations in the is fragments of the sciatic nerve collected. The following biochemical parameters were studied:
Redox Profile: • Total Superoxide Dismutase (tSOD) enzymatic activity total. • Catalase enzymatic activity. • Intra-axonal accumulation of total hydroperoxides (THP). • Intra-axonal accumulation of malonyldialdehyde (MDA).

EGF containing pharmaceutical composition: Composition with human recombinant EGF: 75 μg/ml in Example 1, 100 μg in 1 ml in Example 2, given intraperitoneally
NCT (diabetic rats [1]; 1 ml i.p. once weekly (Treatment group 1), day 28): 125 ± 18 grams | NCT (diabetic rats [1]; 1 ml i.p. three times a week (Treatment group 3), day 28): 123 ± 16 grams | NCT (diabetic rats [1]; 1 ml i.p. three times a week (Treatment group 3), day 56): 121 ± 22 grams | MCV (motor conduction velocity) (diabetic rats [2]; 1 ml i.p. once weekly (Treatment group 1)): 45 ± 13 m/s | MCV (motor conduction velocity) (diabetic rats [2]; 1 ml i.p. three times a week (Treatment group 3)): 56 ± 11 m/s | Laser Doppler perfusion of the sciatic nerve (right sciatic nerve): 934 ± 60.18 LDPI Units | % of collagenized area (sciatic nerve): 46.3 ± 9.5% | % of demyelinated fibers (sciatic nerve): 50.6 ± 12.3% | % of fibers with lesions (sciatic nerve): 52.6 ± 8.3% | No. of blood vessels (sciatic nerve; 10 microscopic fields): 86.5 ± 14.6 | Catalase activity [3]: 86.1 ± 6.5 units per milligram of protein per minute | MDA (malonyldialdehyde) [3]: 0.1 ± 0.03 nmol/mg of protein | THP (total hydroperoxides) [3]: 55.8 ± 12.7 nmol/mg of protein | tSOD (total Superoxide Dismutase activity) [3]: 1988.4 ± 101.6 units per milligram of protein per minute
